US9045556B2, “Therapeutic agent for cancer” (NEC Corporation, priority 2007, dated 2015)

Test system: EG7 cells

For `CC[C@H](C)[C@H](NC(=O)[C@@H](NC(=O)[C@@H](N)CO)[C@@H](C)CC)C(=O)N[C@@H](CC(N)=O)C(=O)N[C@@H](Cc1ccccc1)C(=O)N[C@@H](CCC(=O)O)C(=O)N[C@@H](CCCCN)C(=O)N[C@@H](CC(C)C)C(=O)O` [OVA-I peptide], the “cytotoxic activity of splenocytes against EG7” value was “only low cytotoxic activity was induced”.
